System: severe traumatic brain injury (sTBI)
Assay: sTBI in rats, brain gene expression arrays and pathway analysis (Example 9)
Assay type: in vivo, Male Wistar rats
Settings: TBI + 5 mg/kg LMW-DS
Experimental: The experimental protocol used in this study was approved by the Ethical Committee of the Catholic University of Rome, according to international standards and guidelines for animal care. Male Wistar rats of 300-350 g body weight were fed with standard laboratory diet and water ad libitum in a controlled environment. As the anesthetic mixture, the animals received 35 mg/kg b.w. ketamine and 0.25 mg/kg body weight midazolam by i.p. injection. Severe traumatic brain injury (sTBI) was induced by dropping a 450 g weight from 2 m height on to the rat head that had been protected by a metal disk previously fixed on the skull, according to the “weight drop” impact acceleration model (Marmarou et al., A new model of diffuse brain injury in rats. Part I: Pathophysiology and biomechanics. J Neurosurg. 1994; 80: 291-300). […] At the end of each period of treatment, rats were anesthetized again and then immediately sacrificed.
LMW-DS (Tikomed AB) was provided at a stock concentration of 20 mg/ml and was kept in a temperature-monitored refrigerator at 4° C. LMW-DS aliquots were diluted to the appropriate dosing concentration in sterile saline prior to delivery of a single subcutaneous injection.
Three doses of LMW-DS were administered subcutaneously 30 minutes post-TBI. The animals were sacrificed at 2 days post-TBI. The animals were divided into the following subgroups:
Three doses of LMW-DS were administered subcutaneously 30 minutes post-TBI. The animals were sacrificed at 7 days post-TBI. The animals were divided into the following subgroups:
An in vivo craniectomy was performed on all animals during anesthesia. After carefully removing the rat's skull, the brain was exposed and removed with a surgical spatula and quickly dropped in RNALater and preserved at 4° C. for further processing.
RNA extraction and array processing was carried out by SourceBioscience. The arrays used were the Agilent Rat expression arrays.
Statistical analysis was carried out using the Metaboanalyst software package. Gene expression changes of 10% with a p<0.05 were regarded as significant.
Pathway analysis of the differentially regulated genes was carried out using the Ingenuity pathway analysis package. The analysis was performed with special reference to pathways and molecular processes and diseases associated with neurodegenerative disease, including dementia, Alzheimer's disease, ALS, TBI and stroke, and with scarring and fibrosis, including glaucoma and normal pressure hydrocephalus (NPH) after subarachnoid haemorrhage.

Substance: low molecular weight dextran sulfate [LMW-DS]
- Diseases or functions annotation: Apoptosis (2 days after TBI): Activated
- Diseases or functions annotation: Behavior (2 days after TBI): Inhibited
- Diseases or functions annotation: Carcinoma (2 days after TBI): Inhibited
- Diseases or functions annotation: Cell death (2 days after TBI): Activated
- Diseases or functions annotation: Cell death of antigen presenting cells (2 days after TBI): Inhibited
- Diseases or functions annotation: Cell death of immune cells (2 days after TBI): Inhibited
- Diseases or functions annotation: Cell death of tumor cell lines (2 days after TBI): Inhibited
- Diseases or functions annotation: Cell movement (2 days after TBI): Inhibited
- Diseases or functions annotation: Cell movement of tumor cell lines (2 days after TBI): Inhibited
- Diseases or functions annotation: Cell proliferation of leukocyte cell lines (2 days after TBI): Inhibited
- Diseases or functions annotation: Cellular homeostasis (2 days after TBI): Inhibited
- Diseases or functions annotation: Chemotaxis (2 days after TBI): Inhibited
- Diseases or functions annotation: Concentration of prostaglandin (2 days after TBI): Inhibited
- Diseases or functions annotation: Development of vasculature (2 days after TBI): Inhibited
- Diseases or functions annotation: Digestive organ tumor (2 days after TBI): Inhibited
- Diseases or functions annotation: Digestive system cancer (2 days after TBI): Inhibited
- Diseases or functions annotation: Edema (2 days after TBI): Activated
- Diseases or functions annotation: Epithelial neoplasm (2 days after TBI): Inhibited
- Diseases or functions annotation: Extracranial solid tumor (2 days after TBI): Inhibited
- Diseases or functions annotation: Feeding (2 days after TBI): Inhibited
- Diseases or functions annotation: Growth of tumor (2 days after TBI): Inhibited
- Diseases or functions annotation: Hematologic cancer (2 days after TBI): Inhibited
- Diseases or functions annotation: Incidence of tumor (2 days after TBI): Inhibited
- Diseases or functions annotation: Leukocyte migration (2 days after TBI): Inhibited
- Diseases or functions annotation: Leukopoiesis (2 days after TBI): Inhibited
- Diseases or functions annotation: Locomotion (2 days after TBI): Inhibited
- Diseases or functions annotation: Lymphocyte homeostasis (2 days after TBI): Inhibited
- Diseases or functions annotation: Lymphocytic cancer (2 days after TBI): Inhibited
- Diseases or functions annotation: Lymphocytic neoplasm (2 days after TBI): Inhibited
- Diseases or functions annotation: Lymphopoiesis (2 days after TBI): Inhibited
- Diseases or functions annotation: Lymphoproliferative disorder (2 days after TBI): Inhibited
- Diseases or functions annotation: Malignant solid tumor (2 days after TBI): Inhibited
- Diseases or functions annotation: Metabolism of hormone (2 days after TBI): Inhibited
- Diseases or functions annotation: Migration of cells (2 days after TBI): Inhibited
- Diseases or functions annotation: Necrosis (2 days after TBI): Inhibited
- Diseases or functions annotation: Neoplasia of leukocytes (2 days after TBI): Inhibited
- Diseases or functions annotation: Non-melanoma solid tumor (2 days after TBI): Inhibited
- Diseases or functions annotation: Proliferation of hematopoietic progenitor cells (2 days after TBI): Inhibited
- Diseases or functions annotation: Quantity of cells (2 days after TBI): Inhibited
- Diseases or functions annotation: Quantity of epithelial tissue (2 days after TBI): Inhibited
- Diseases or functions annotation: Quantity of neuroglia (2 days after TBI): Inhibited
- Diseases or functions annotation: Resorption of bone (2 days after TBI): Inhibited
- Diseases or functions annotation: Secretion of molecule (2 days after TBI): Activated
- Diseases or functions annotation: Size of body (2 days after TBI): Inhibited
- Diseases or functions annotation: Synthesis of hormone (2 days after TBI): Inhibited
- Diseases or functions annotation: Transcription of RNA (2 days after TBI): Inhibited
- Diseases or functions annotation: Transport of molecule (2 days after TBI): Activated
- Diseases or functions annotation: Vasculogenesis (2 days after TBI): Inhibited
- Ingenuity canonical pathway: Acute Phase Response Signaling (7 days after TBI): Activated
- Ingenuity canonical pathway: Adrenomedullin signaling pathway (7 days after TBI): Inhibited
- Ingenuity canonical pathway: Cardiac Hypertrophy Signaling (7 days after TBI): Activated
- Ingenuity canonical pathway: Colorectal Cancer Metastasis Signaling (7 days after TBI): Inhibited
- Ingenuity canonical pathway: Dendritic Cell Maturation (7 days after TBI): Activated
- Ingenuity canonical pathway: ERK5 Signaling (7 days after TBI): Inhibited
- Ingenuity canonical pathway: ERK/MAPK Signaling (7 days after TBI): Activated
- Ingenuity canonical pathway: Endothelin-1 Signaling (7 days after TBI): Activated
- Ingenuity canonical pathway: Fcγ Receptor-mediated Phagocytosis in Macrophages and Monocytes (7 days after TBI): Activated
- Ingenuity canonical pathway: GNRH Signaling (7 days after TBI): Activated
- Ingenuity canonical pathway: HMGB1 Signaling (7 days after TBI): Activated
- Ingenuity canonical pathway: IL-1 Signaling (7 days after TBI): Activated
- Ingenuity canonical pathway: IL-6 Signaling (7 days after TBI): Activated
- Ingenuity canonical pathway: IL-8 Signaling (7 days after TBI): Activated
- Ingenuity canonical pathway: ILK Signaling (7 days after TBI): Activated
- Ingenuity canonical pathway: Leukocyte Extravasation Signaling (7 days after TBI): Activated
- Ingenuity canonical pathway: Neuroinflammation Signaling Pathway (7 days after TBI): Activated
- Ingenuity canonical pathway: Osteoarthritis Pathway (7 days after TBI): Inhibited
- Ingenuity canonical pathway: PI3K Signaling in B Lymphocytes (7 days after TBI): Activated
- Ingenuity canonical pathway: PKCθ Signaling in T Lymphocytes (7 days after TBI): Activated
- Ingenuity canonical pathway: PPAR Signaling (7 days after TBI): Inhibited
- Ingenuity canonical pathway: Phospholipase C Signaling (7 days after TBI): Activated
- Ingenuity canonical pathway: Production of Nitric Oxide and Reactive Oxygen Species in Macrophages (7 days after TBI): Activated
- Ingenuity canonical pathway: Protein Kinase A Signaling (7 days after TBI): Inhibited
- Ingenuity canonical pathway: Role of NFAT in Regulation of the Immune Response (7 days after TBI): Activated
- Ingenuity canonical pathway: Signaling by Rho Family GTPases (7 days after TBI): Activated
- Ingenuity canonical pathway: Synaptic Long Term Depression (7 days after TBI): Activated
- Ingenuity canonical pathway: Wnt/β-catenin Signaling (7 days after TBI): Inhibited
- Ingenuity canonical pathway: cAMP-mediated signaling (7 days after TBI): Inhibited
- Ingenuity canonical pathway: mTOR Signaling (7 days after TBI): Activated
- z score: Abdominal adenocarcinoma (7 days after TBI): 0.73
- z score: Abdominal cancer (7 days after TBI): −0.474
- z score: Abdominal carcinoma (7 days after TBI): −0.831
- z score: Abdominal neoplasm (7 days after TBI): 0.061
- z score: Adenocarcinoma (7 days after TBI): −0.155
- z score: Angiogenesis (7 days after TBI): 0.294
- z score: Apoptosis (7 days after TBI): −0.676
- z score: Apoptosis of tumor cell lines (7 days after TBI): −0.941
- z score: Bleeding (7 days after TBI): −2.118
- z score: Breast or colorectal cancer (7 days after TBI): −1.953
- z score: Breast or ovarian cancer (7 days after TBI): −1.953
- z score: Breast or pancreatic cancer (7 days after TBI): −1.026
- z score: Cancer (7 days after TBI): 0.905
- z score: Cancer of cells (7 days after TBI): 0.742
- z score: Cancer of secretory structure (7 days after TBI): 0.64
- z score: Carcinoma (7 days after TBI): −0.403
- z score: Cell cycle progression (7 days after TBI): 1.58
- z score: Cell death (7 days after TBI): 0.791
- z score: Cell death of epithelial cells (7 days after TBI): 1.993
- z score: Cell death of tumor cell lines (7 days after TBI): −0.811
- z score: Cell movement (7 days after TBI): 2.297
- z score: Cell movement of endothelial cells (7 days after TBI): 2.084
- z score: Cell movement of myeloid cells (7 days after TBI): 3.907
- z score: Cell movement of tumor cell lines (7 days after TBI): 1.492
- z score: Cell survival (7 days after TBI): 1.966
- z score: Cell viability (7 days after TBI): 1.879
- z score: Cell viability of tumor cell lines (7 days after TBI): 0.991

— patent US11534457B2, “Use of dextran sulfate” (priority 2017, dated 2022)
